Assay results from patent US20050169863A1, “2-Thioacetamide compositions for stimulating the growth of keratin fibers and/or for reducing loss thereof” (L'OREAL, priority 2003, published 2005).

Tests used:
15-PGDH = molecular target: T1, 15-PGDH (Homo sapiens, UniProt P15428); assay: Test on 15-PGDH (spectrophotometric, 340 nm, PGE2/β-NAD); assay type: biochemical; details: for Inhibition of 15-PGDH % inhibition at 50 μm: compound at 50 μm, pH 7.4
T1 construct: made in house
T1 sequence (P15428 1-266): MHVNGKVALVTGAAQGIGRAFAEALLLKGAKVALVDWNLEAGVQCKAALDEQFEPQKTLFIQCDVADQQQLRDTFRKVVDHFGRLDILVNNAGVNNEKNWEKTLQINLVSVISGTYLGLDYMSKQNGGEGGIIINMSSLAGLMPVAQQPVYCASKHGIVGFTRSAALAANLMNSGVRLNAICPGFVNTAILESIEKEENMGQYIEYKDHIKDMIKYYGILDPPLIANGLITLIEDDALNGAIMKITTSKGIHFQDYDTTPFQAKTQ
Description: The enzyme 15-PGDH is obtained as described in patent application FR 02/05067 filed in the name of L'Oréal, as a suspension in a medium adjusted to a concentration of 0.3 mg/mL and then blocked at −80° C. For the purposes of the test, this suspension is thawed and stored in ice.
In parallel, a 100 mM, pH 7.4 Tris buffer containing 0.1 mM of dithiothreitol (D5545, Sigma-Aldrich, L'isle D'Abeau Chesne, BP 701, 38297, Saint Quentin Fallavier), 1.5 mM of β-NAD (N6522, Sigma-Aldrich, L'isle D'Abeau Chesne, BP 701, 38297, Saint Quentin Fallavier), and 50 μM of prostaglandin E2 (P4172, Sigma-Aldrich, L'isle D'Abeau Chesne, BP 701, 38297, Saint Quentin Fallavier) is prepared.
(§1) 0.965 ml of this buffer (brought to 37° C. beforehand) is introduced into the cuvette of a spectrophotometer (Perkin-Elmer, Lambda 2) thermostatically maintained at 37° C., the measuring wavelength of which is set at 340 nm. 0.035 mL of enzymatic suspension at 37° C. is introduced into the cuvette concomitantly with the recording (corresponding to an increase in the optical density at 340 nm). The maximum reaction rate is recorded.
The test values (containing the compounds (I)) are compared with the control value (without compound (I)); the results indicated represent the concentration at which the compound of formula (I) reduces the anzymatic activity of 15-PGDH by 50%, namely IC50dh.

PGF synthase (PGFS) = molecular target: T2, PGF synthase (PGFS) (Homo sapiens, UniProt P42330); assay: Test on PGF synthase (spectrophotometric, 340 nm, 9,10-phenanthrenequinone/β-NADPH); assay type: biochemical; details: IC50fs; 37° C., pH 6.5 Tris buffer, 20 μM 9,10-phenanthrenequinone, 100 μM β-NADPH
T2 construct: made in house
T2 sequence (P42330 1-323): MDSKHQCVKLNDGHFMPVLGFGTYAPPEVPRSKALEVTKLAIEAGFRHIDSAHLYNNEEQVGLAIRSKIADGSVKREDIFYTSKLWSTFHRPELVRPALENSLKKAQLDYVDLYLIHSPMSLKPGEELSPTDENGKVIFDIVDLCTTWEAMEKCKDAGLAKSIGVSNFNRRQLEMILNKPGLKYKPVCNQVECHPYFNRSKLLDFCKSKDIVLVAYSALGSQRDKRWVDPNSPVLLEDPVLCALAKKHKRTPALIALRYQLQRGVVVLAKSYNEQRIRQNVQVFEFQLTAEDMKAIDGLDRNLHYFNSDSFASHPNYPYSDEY
Description: The enzyme PGFS is obtained as described in document FR-A-02/05067, at a concentration of 0.5 mg/mL, as a suspension in a suitable medium, and blocked at −80° C. For the purposes of the test, this suspension is thawed and stored in ice.
In parallel, a 100 mM, pH 6.5 Tris buffer containing 20 μM of 9,10-phenanthrenequinone* (P2896, Sigma-Aldrich, L'isle D'Abeau Chesne, BP 701, 38297, Saint Quentin Fallavier) and 100 μM of β-NADPH (N1630, Sigma-Aldrich, L'isle D'Abeau Chesne, BP 701, 38297, Saint Quentin Fallavier) is prepared in a brown flask (protected from light).
*A stock solution with a titre of 1 mM is prepared in absolute ethanol and brought to 40° C.; the flask is placed in an ultrasound cuvette to facilitate the dissolution of the product.
as §1, with “0.950 mL” for “0.965 ml”, “0.05” for “0.035”, “a reduction” for “an increase”, “recorded. […]” for “recorded.”

IC50 (15-PGDH; IC50dh, 37° C., pH 7.4 Tris buffer, 50 μM prostaglandin E2, 1.5 mM β-NAD, read-out: Inhibition of 15-PGDH IC50)	Inhibition of 15-PGDH % inhibition at 50 μm (15-PGDH; 37° C.)	IC50fs/IC50dh ratio (15-PGDH; selectivity: PGF synthase IC50 over 15-PGDH IC50)	IC50 (PGF synthase (PGFS))	Structure (SMILES)
5 µM	89%	greater than 10	≥ 50 µM	O=C(CSc1nc2ccccc2s1)NC1CCCC1 [Compound 1]
	30%			CC(=O)c1ccc(C#N)c(SCC(=O)Nc2cc(Cl)cc(Cl)c2)n1 [Compound 2]
	26%			O=C(CSc1nnc2sc3ccccc3n12)Nc1ccc(Br)cc1 [Compound 3]
